Holding throughout (test): Antimicrobial activity, agar dilution method (minimal inhibitory concentration)
Common to all, as to type: cell-based
Background: Agar dilution tests growth on a series of plates holding different concentrations.

Assay [1] relates to Staphylococcus aureus 209P. From the text:
(§1) The antimicrobial activities of the compounds obtained in the above Examples determined by the standard test method (i.e. agar dilution method) as well as those of the following penicillins as disclosed in U.S. Pat. No. 3,433,784 are shown in Table 2: [drawing 59]

Another assay relates to Proteus miravilis 2425.
Text: as §1

In assay [2] the test system is Psudomonas aeruginosa 104.
Text: as §1

The test system of assay [3] is Klebsiella pneumoniae 602.
Text: as §1

Another assay concerns Escherichia coli NIHJ.
Text: as §1

For the next assay, the system named is Proteus vulgaris HX19.
Text: as §1

Values after ≈ are worked out from the molar mass of the structure shown.

On to `CC1(C)S[C@@H]2[C@H](NC(=O)[C@H](NC(=O)c3cnccc3O)c3ccccc3)C(=O)N2[C@H]1C(=O)O` [Example 3, D-α-(4-hydroxypyridine-3-carbonamido)benzylpenicillin], for which the MIC in assay [1] is 0.39 µg/mL (≈ 0.829 µM); with Proteus miravilis 2425, 6.25 µg/mL (≈ 13.3 µM); in assay [2] it was 3.13 µg/mL (≈ 6.65 µM); in assay [3], 25 µg/mL (≈ 53.1 µM); in the assay with Escherichia coli NIHJ it was 25 µg/mL (≈ 53.1 µM); with Proteus vulgaris HX19, 0.1 µg/mL (≈ 0.213 µM).

Regarding `CC1(C)S[C@@H]2[C@H](NC(=O)[C@H](NC(=O)c3cccnc3O)c3ccccc3)C(=O)N2[C@H]1C(=O)O` [Example 11], the MIC is 0.39 µg/mL (≈ 0.829 µM) in assay [1]; 25 µg/mL (≈ 53.1 µM) in the assay on Proteus miravilis 2425; 6.25 µg/mL (≈ 13.3 µM) in assay [2]; 25 µg/mL (≈ 53.1 µM) in assay [3]; 12.5 µg/mL (≈ 26.6 µM) with Escherichia coli NIHJ; 0.2 µg/mL (≈ 0.425 µM) against Proteus vulgaris HX19.

As for `Cc1ccc2c(O)c(C(=O)N[C@@H](C(=O)N[C@@H]3C(=O)N4[C@@H]3SC(C)(C)[C@@H]4C(=O)O)c3ccccc3)cnc2n1` [Example 15], the MIC stood at 0.39 µg/mL (≈ 0.728 µM) in assay [1]; 3.13 µg/mL (≈ 5.84 µM) in the assay on Proteus miravilis 2425; 3.13 µg/mL (≈ 5.84 µM) in assay [2]; 1.56 µg/mL (≈ 2.91 µM) in assay [3]; 3.13 µg/mL (≈ 5.84 µM) against Escherichia coli NIHJ; 0.2 µg/mL (≈ 0.373 µM) in the assay on Proteus vulgaris HX19.

In the case of `COc1ccc2ncc(C(=O)N[C@@H](C(=O)N[C@@H]3C(=O)N4[C@@H]3SC(C)(C)[C@@H]4C(=O)O)c3ccc(O)cc3)c(O)c2n1` [Example 27], the figures for the MIC in the assay with Escherichia coli NIHJ and in the assay with Proteus vulgaris HX19 were 3.13 µg/mL (≈ 5.51 µM) and 0.05 µg/mL (≈ 0.0881 µM), respectively.

Turning to `CC1(C)S[C@@H]2[C@H](NC(=O)[C@H](NC(=O)c3cnc4cccnc4c3O)c3ccc(O)cc3)C(=O)N2[C@H]1C(=O)O` (mixture of isomers) [Example 2, D-α-(4-hydroxy-1,5-naphthyridine-3-carbonamido)-p-hydroxyphenylacetamidopenicillanic acid], the MIC came out at 1.56 µg/mL in assay [1]; 0.78 µg/mL in assay [2]; 6.25 µg/mL in assay [3]; 0.78 µg/mL against Escherichia coli NIHJ; 0.0125 µg/mL against Proteus vulgaris HX19.

With `COc1cc2ncc(C(=O)N[C@@H](C(=O)N[C@@H]3C(=O)N4[C@@H]3SC(C)(C)[C@@H]4C(=O)O)c3ccccc3)c(O)c2cn1` [Example 16], the MIC was determined as 6.25 µg/mL (≈ 11.3 µM) in assay [2], 6.25 µg/mL (≈ 11.3 µM) in assay [3] and 0.2 µg/mL (≈ 0.363 µM) in the assay on Proteus vulgaris HX19.

As to `Cc1ccc2ncc(C(=O)N[C@@H](C(=O)N[C@@H]3C(=O)N4[C@@H]3SC(C)(C)[C@@H]4C(=O)O)c3ccc(O)cc3)c(O)c2n1` [Example 26], the MIC was 1.56 µg/mL (≈ 2.83 µM) against Escherichia coli NIHJ and 0.05 µg/mL (≈ 0.0906 µM) against Proteus vulgaris HX19.

For the compound `CC1(C)S[C@@H]2[C@H](NC(=O)[C@H](NC(=O)c3ncccc3O)c3ccccc3)C(=O)N2[C@H]1C(=O)O` [Example 10], the MIC in assay [1] was 0.2 µg/mL (≈ 0.425 µM); against Proteus miravilis 2425, 25 µg/mL (≈ 53.1 µM); in assay [2], 6.25 µg/mL (≈ 13.3 µM); in assay [3], 25 µg/mL (≈ 53.1 µM); against Escherichia coli NIHJ it was 6.25 µg/mL (≈ 13.3 µM); with Proteus vulgaris HX19, 0.2 µg/mL (≈ 0.425 µM).

On to `CC1(C)S[C@@H]2[C@H](NC(=O)[C@H](NC(=O)c3cnc4cccnc4c3O)c3ccccc3)C(=O)N2[C@H]1C(=O)O` [Example 1, D-α-(4-hydroxy-1,5-naphthyridine-3-carbonamido)benzylpenicillin], for which the MIC stood at 0.78 µg/mL (≈ 1.5 µM) in assay [1]; 3.13 µg/mL (≈ 6 µM) in the assay on Proteus miravilis 2425; 1.56 µg/mL (≈ 2.99 µM) in assay [2]; 6.25 µg/mL (≈ 12 µM) in assay [3]; 1.56 µg/mL (≈ 2.99 µM) with Escherichia coli NIHJ; 0.1 µg/mL (≈ 0.192 µM) in the assay on Proteus vulgaris HX19.

In the case of `CC1(C)S[C@@H]2[C@H](NC(=O)[C@H](NC(=O)c3cnc4ccccc4c3O)c3ccc(O)cc3)C(=O)N2[C@H]1C(=O)O` [Example 22], the results for the MIC against Escherichia coli NIHJ and against Proteus vulgaris HX19 were 6.25 µg/mL (≈ 11.6 µM) and 0.2 µg/mL (≈ 0.373 µM), respectively.

The compound `CC1(C)S[C@@H]2[C@H](NC(=O)[C@H](NC(=O)c3cnc4ccccc4c3O)c3ccccc3)C(=O)N2[C@H]1C(=O)O` [Example 9] had an MIC in the assay with Proteus vulgaris HX19 of 0.2 µg/mL (≈ 0.384 µM).

Regarding `CC1(C)S[C@@H]2[C@H](NC(=O)[C@H](NC(=O)c3nnc4ccccc4c3O)c3ccc(O)cc3)C(=O)N2[C@H]1C(=O)O` [Example 23], the MIC in the assay with Proteus vulgaris HX19 came to 0.78 µg/mL (≈ 1.45 µM).

Regarding `Cc1ccc2c(O)c(C(=O)N[C@@H](C(=O)N[C@@H]3C(=O)N4[C@@H]3SC(C)(C)[C@@H]4C(=O)O)c3ccc(O)cc3)cnc2n1` [Example 19], the MIC in assay [1] worked out at 1.56 µg/mL (≈ 2.83 µM); with Proteus miravilis 2425, 25 µg/mL (≈ 45.3 µM); in the assay with Escherichia coli NIHJ it was 6.25 µg/mL (≈ 11.3 µM); against Proteus vulgaris HX19, 0.39 µg/mL (≈ 0.707 µM).

Regarding `CC1(C)S[C@@H]2[C@H](NC(=O)[C@H](NC(=O)c3cnc4c(c3O)CCCC4)c3ccccc3)C(=O)N2[C@H]1C(=O)O` [Example 12], the MIC came to 0.78 µg/mL (≈ 1.49 µM) in assay [1]; 6.25 µg/mL (≈ 11.9 µM) in the assay on Proteus miravilis 2425; 12.5 µg/mL (≈ 23.8 µM) in assay [2]; 6.25 µg/mL (≈ 11.9 µM) in assay [3]; 12.5 µg/mL (≈ 23.8 µM) in the assay with Escherichia coli NIHJ; 0.05 µg/mL (≈ 0.0953 µM) in the assay with Proteus vulgaris HX19.

With `CC1(C)S[C@@H]2[C@H](NC(=O)[C@H](NC(=O)c3cnc4cccnc4c3O)C3=CCC=CC3)C(=O)N2[C@H]1C(=O)O` [Example 6], the MIC in assay [1] is 0.39 µg/mL (≈ 0.745 µM); against Proteus miravilis 2425, 3.13 µg/mL (≈ 5.98 µM); in assay [2], 1.56 µg/mL (≈ 2.98 µM); in assay [3], 3.13 µg/mL (≈ 5.98 µM); with Escherichia coli NIHJ it was 1.56 µg/mL (≈ 2.98 µM); against Proteus vulgaris HX19, less than 0.05 µg/mL.

`CN(C)c1ccc2ncc(C(=O)N[C@@H](C(=O)N[C@@H]3C(=O)N4[C@@H]3SC(C)(C)[C@@H]4C(=O)O)c3ccc(O)cc3)c(O)c2n1` [Example 14]: the MIC turned out to be 3.13 µg/mL (≈ 5.39 µM) in assay [1]; 1.56 µg/mL (≈ 2.69 µM) in the assay on Proteus miravilis 2425; 3.13 µg/mL (≈ 5.39 µM) in assay [2]; 3.13 µg/mL (≈ 5.39 µM) in assay [3]; 1.56 µg/mL (≈ 2.69 µM) against Escherichia coli NIHJ; 0.1 µg/mL (≈ 0.172 µM) in the assay with Proteus vulgaris HX19.

Turning to `CCOc1cnc2ccccc2c1C(=O)NC(C(=O)N[C@@H]1C(=O)N2[C@@H]1SC(C)(C)[C@@H]2C(=O)O)c1ccccc1` (stereo partly drawn) [B, reference compound], the MIC was found to be 0.39 µg/mL (≈ 0.711 µM) in assay [1]; 100 µg/mL (≈ 182 µM) in the assay on Proteus miravilis 2425; 100 µg/mL (≈ 182 µM) in assay [2]; 25 µg/mL (≈ 45.6 µM) in assay [3]; 50 µg/mL (≈ 91.1 µM) in the assay with Escherichia coli NIHJ; 12.5 µg/mL (≈ 22.8 µM) with Proteus vulgaris HX19.

Regarding `CC1(C)S[C@@H]2[C@H](NC(=O)[C@H](NC(=O)c3cnc4cn[nH]c4c3O)c3ccccc3)C(=O)N2[C@H]1C(=O)O` [Example 20], the minimum inhibitory concentration (MIC) in assay [1] amounted to 0.78 µg/mL (≈ 1.53 µM); against Proteus miravilis 2425 it was 3.13 µg/mL (≈ 6.13 µM); in assay [2] it was 6.25 µg/mL (≈ 12.2 µM); in assay [3] it was 6.25 µg/mL (≈ 12.2 µM); in the assay on Escherichia coli NIHJ it was 3.13 µg/mL (≈ 6.13 µM); against Proteus vulgaris HX19 it was 0.1 µg/mL (≈ 0.196 µM).

Take `CN(C)c1ccc2ncc(C(=O)N[C@@H](C(=O)N[C@@H]3C(=O)N4[C@@H]3SC(C)(C)[C@@H]4C(=O)O)C3=CCC=CC3)c(O)c2n1` [Example 28]: the MIC in assay [1] was found to be 0.78 µg/mL (≈ 1.38 µM); in the assay on Proteus miravilis 2425, 1.56 µg/mL (≈ 2.75 µM); in assay [2], 3.13 µg/mL (≈ 5.52 µM); in assay [3], 6.25 µg/mL (≈ 11 µM); against Escherichia coli NIHJ, 1.56 µg/mL (≈ 2.75 µM); against Proteus vulgaris HX19 it was 0.05 µg/mL (≈ 0.0882 µM).

As to `CC1(C)S[C@@H]2[C@H](NC(=O)[C@H](NC(=O)c3ccnnc3O)c3ccccc3)C(=O)N2[C@H]1C(=O)O` [Example 5, D-α-(3hydroxypyridazine-4-carbonamido)benzylpenicillin], the MIC in assay [1] was 0.39 µg/mL (≈ 0.827 µM); against Proteus miravilis 2425 it was 6.25 µg/mL (≈ 13.3 µM); in assay [2], 3.13 µg/mL (≈ 6.64 µM); in assay [3] it was 6.25 µg/mL (≈ 13.3 µM); against Escherichia coli NIHJ, 12.5 µg/mL (≈ 26.5 µM); with Proteus vulgaris HX19, 0.05 µg/mL (≈ 0.106 µM).

Compound `CC1(C)S[C@@H]2[C@H](NC(=O)C(NC(=O)c3ccccn3)c3ccccc3)C(=O)N2[C@H]1C(=O)O` (stereo partly drawn) [Compound, reference compound] displayed an MIC in the assay on Proteus vulgaris HX19 of 0.39 µg/mL (≈ 0.858 µM).

Broadly, the MIC is the least concentration at which growth counts as inhibited. Higher therefore signals a less susceptible organism.

Source of the values: patent US4005075A, “Penicillins and their preparation” (Sumitomo Chemical Company, Limited, priority 1973, dated 1977).
